These results are taken from patent US10246439B2, “Apoptosis signal-regulating kinase 1 inhibitors and methods of use thereof” (ENANTA PHARMACEUTICALS, INC., priority 2017, dated 2019).

The assay deals with T1, ASK1 (Homo sapiens, UniProt Q99683).
T1 construct: purchased Thermofisher PV4011
T1 sequence (Q99683 1-1374): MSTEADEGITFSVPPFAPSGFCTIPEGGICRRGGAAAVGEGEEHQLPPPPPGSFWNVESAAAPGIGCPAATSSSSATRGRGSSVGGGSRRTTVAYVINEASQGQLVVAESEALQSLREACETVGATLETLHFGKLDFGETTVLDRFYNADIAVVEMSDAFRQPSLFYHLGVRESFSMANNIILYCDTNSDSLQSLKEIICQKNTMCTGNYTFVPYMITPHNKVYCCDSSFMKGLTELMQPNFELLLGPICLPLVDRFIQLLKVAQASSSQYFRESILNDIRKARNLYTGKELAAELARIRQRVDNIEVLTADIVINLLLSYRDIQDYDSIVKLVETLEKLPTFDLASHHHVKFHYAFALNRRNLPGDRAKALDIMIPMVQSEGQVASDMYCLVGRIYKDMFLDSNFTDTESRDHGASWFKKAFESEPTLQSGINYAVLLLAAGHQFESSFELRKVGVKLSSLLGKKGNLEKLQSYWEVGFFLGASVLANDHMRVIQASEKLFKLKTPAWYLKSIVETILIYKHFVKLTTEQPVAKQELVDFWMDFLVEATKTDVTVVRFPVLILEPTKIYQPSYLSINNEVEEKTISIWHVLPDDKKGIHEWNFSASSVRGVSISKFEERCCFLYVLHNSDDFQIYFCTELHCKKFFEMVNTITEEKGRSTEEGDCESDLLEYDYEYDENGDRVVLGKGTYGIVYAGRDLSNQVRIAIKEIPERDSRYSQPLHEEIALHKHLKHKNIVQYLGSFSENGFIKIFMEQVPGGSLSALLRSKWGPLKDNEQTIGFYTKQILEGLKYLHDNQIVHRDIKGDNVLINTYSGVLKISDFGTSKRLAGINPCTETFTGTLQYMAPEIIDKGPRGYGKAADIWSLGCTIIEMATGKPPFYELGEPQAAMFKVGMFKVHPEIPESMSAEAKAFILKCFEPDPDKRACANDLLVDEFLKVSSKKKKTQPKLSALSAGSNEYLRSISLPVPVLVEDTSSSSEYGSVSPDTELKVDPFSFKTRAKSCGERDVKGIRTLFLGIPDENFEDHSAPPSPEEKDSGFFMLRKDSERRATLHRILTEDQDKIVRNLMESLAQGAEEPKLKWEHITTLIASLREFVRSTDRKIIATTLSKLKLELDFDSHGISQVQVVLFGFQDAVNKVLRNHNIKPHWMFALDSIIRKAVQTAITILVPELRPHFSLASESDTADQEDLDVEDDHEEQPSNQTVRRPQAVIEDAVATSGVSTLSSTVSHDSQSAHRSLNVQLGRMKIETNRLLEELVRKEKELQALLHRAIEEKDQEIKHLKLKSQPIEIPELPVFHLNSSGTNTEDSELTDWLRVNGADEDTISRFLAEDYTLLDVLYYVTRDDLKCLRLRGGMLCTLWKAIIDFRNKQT
The assay can be described thus: HTRF KinEASE-STK TR-FRET kinase assay, inhibition of ASK1. In kind it is biochemical. Conditions: 5 nM ASK1, 1 uM STK3 peptide substrate, 100 uM ATP. The method, then: ASK1 was purchased from Thermofisher (Catalogue # PV4011), ATP was purchased from Sigma (Catalogue # A7699), HTRF® KinEASE™ Assay System was obtained from Cisbio (Bedford, Mass.). ½ Area plate was purchased from Perkin Elmer (Catalogue # #6005560). HTRF® KinEASE™-STK is a generic method for measuring serine/threonine kinase activities using a time-resolved fluorescence resonance energy transfer (TR-FRET) immunoassay. The IC50 value for each compound was determined in the presence of compound (various concentration from 0 to 10 μM) and a fixed amount of ATP and peptide substrates. The test compound, 1 uM STK3 peptide substrate, and 5 nM of ASK1 kinase are incubated with kinase reaction buffer containing 50 mM HEPES pH 7.5, 0.01% BRIJ-35, 10 mM MgCl2, and 1 mM EGTA for 30 minutes. 100 uM ATP is added to start kinase reaction and incubated for 3 hours. The STK3-antibody labeled with Eu^3+-Cryptate and 125 nM streptavidin-XL665 are mixed in a single addition with stop reagents provided by the Cisbio kit used to stop the kinase reaction. Fluorescence is detected using an Envision Multilabeled 2014 reader from PerkinElmer. The Fluorescence is measured at 615 nm (Cryptate) and 665 nm (XL665) and a ratio of 665 nm/615 nm is calculated for each well. The resulting TR-FRET is proportional to the phosphorylation level. Staurosporine was used as the positive control. IC50 was determined by XLfit 5.3.
(In general: TR-FRET usually uses a lanthanide donor and a delayed reading to cut background.)
On to `CC(C)n1nnnc1-c1cccc(NC(=O)c2cc3sc(C4CC4)nc3cc2F)n1` [Example 31], for which the IC50 – broadly, the midpoint of a concentration-inhibition curve – is greater than 1000 nM. On to `CC(C)n1cnnc1-c1cccc(NC(=O)c2ccc3nc(N4CCN(C5CC5)CC4)sc3c2)n1` [Example 55], for which the IC50 lay within 100 to 1000 nM. `CC(C)n1nnnc1-c1cccc(NC(=O)c2cc3sc(N4CCOCC4)nc3cc2F)n1` [Example 46]: the IC50 fell in the range of 10 to 100 nM.

`CC(C)n1nnnc1-c1cccc(NC(=O)c2cc3sc(N4CCC4)nc3cc2F)n1` [Example 45] came in with an IC50 greater than 1000 nM.

`CC(C)n1cnnc1-c1cccc(NC(=O)c2ccc3nc(N4CCOCC4)sc3c2)n1` [Example 61] displayed an IC50 of 10 to 100 nM. Consider `CCN(CC)c1nc2cc(F)c(C(=O)Nc3cccc(-c4nncn4C(C)C)n3)cc2s1` [Example 13], for which the IC50 was 1 to 10 nM. For the compound `CCCCNc1nc2cc(F)c(C(=O)Nc3cccc(-c4nnnn4C(C)C)n3)cc2s1` [Example 40], the IC50 is greater than 1000 nM. The compound `CC(C)n1cnnc1-c1cccc(NC(=O)c2cc3sc(N(C)C4CCCCC4)nc3cc2F)n1` [Example 8] came in with an IC50 of 1 to 10 nM. Take `CC(C)n1cnnc1-c1cccc(NC(=O)c2cc3sc(N4CCN(C(C)(C)C)CC4)nc3cn2)n1` [Example 74]: the IC50 is 10 to 100 nM. The compound `CC(C)n1cnnc1-c1cccc(NC(=O)c2cc3sc(N(C)C)nc3cc2F)n1` [Example 14] displayed an IC50 of 1 to 10 nM. On to `CC(C)n1cnnc1-c1cccc(NC(=O)c2ccc3nc(N4CCC4)sc3c2)n1` [Example 21], for which the IC50 is 100 to 1000 nM.

With `CC(C)n1nnnc1-c1cccc(NC(=O)c2cc3sc(N4CCC(C(C)(C)C)CC4)nc3cn2)n1` [Example 68], the IC50 was greater than 1000 nM. As for `CC(C)n1nnnc1-c1cccc(NC(=O)c2cc3sc(N4CCCCC4)nc3cc2F)n1` [Example 4], the IC50 was greater than 1000 nM. For the compound `CC(C)n1cnnc1-c1cccc(NC(=O)c2cc3sc(N(C)CC4CC4)nc3cc2F)n1` [Example 11], the IC50 fell in the range of 1 to 10 nM. For `CC(C)n1cnnc1-c1cccc(NC(=O)c2cc3sc(N4CCCCC4)nc3cn2)n1` [Example 66, N-(6-(4-isopropyl-4H-1,2,4-triazol-3-yl)pyridin-2-yl)-2-(piperidin-1-yl)thiazolo[4,5-c]pyridine-6-carboxamide], the IC50 lay in the range of 1 to 10 nM.

Compound `CC(C)n1cnnc1-c1cccc(NC(=O)c2cc3sc(C4CC4)nc3cn2)n1` [Example 63, 2-cyclopropyl-N-(6-(4-isopropyl-4H-1,2,4-triazol-3-yl)pyridin-2-yl)thiazolo[4,5-c]pyridine-6-carboxamide] returned an IC50 of 10 to 100 nM. Consider `CC(C)n1cnnc1-c1cccc(NC(=O)c2ccc3nc(N4CCC(C)(C)CC4)sc3c2)n1` [Example 54], for which the IC50 was greater than 1000 nM. To `CC(C)n1nnnc1-c1cccc(NC(=O)c2cc3sc(N4CCN(C(C)(C)C)CC4)nc3cn2)n1` [Example 71] belongs 100 to 1000 nM; to `CC(C)n1cnnc1-c1cccc(NC(=O)c2cc3sc(N4CCC(C(C)(C)C)CC4)nc3cn2)n1` [Example 73], greater than 1000 nM; to `CC(C)n1cnnc1-c1cccc(NC(=O)c2ccc3ncn(C)c3c2)n1` [Example 1, N-(6-(4-isopropyl-4H-1,2,4-triazol-3-yl)pyridin-2-yl)-1-methyl-1H-benzo[d]imidazole-6-carboxamide], 100 to 1000 nM. `CC(C)n1nnnc1-c1cccc(NC(=O)c2cc3sc(N4CCCC4)nc3cc2F)n1` [Example 47] displayed an IC50 greater than 1000 nM. To `CC(C)n1nnnc1-c1cccc(NC(=O)c2cc3sc(C4CC4)nc3cn2)n1` [Example 70] belongs greater than 1000 nM; to `CC(C)n1nnnc1-c1cccc(NC(=O)c2cc3sc(N(C)C)nc3cc2F)n1` [Example 5], 10 to 100 nM; to `CC(C)n1cnnc1-c1cccc(NC(=O)c2cc3sc(N4CCC(C(C)(C)C)CC4)nc3cc2F)n1` [Example 29], 10 to 100 nM. The value for `CC(C)n1cnnc1-c1cccc(NC(=O)c2ccc3nc(N4C5CCCC4CC5)sc3c2)n1` [Example 51] was 10 to 100 nM. In turn, `CC(C)n1nnnc1-c1cccc(NC(=O)c2cc3sc(C4CCC4)nc3cn2)n1` [Example 69] displayed an IC50 greater than 1000 nM.

`CC(C)n1nnnc1-c1cccc(NC(=O)c2cc3sc(N4CCC(C(C)(C)C)CC4)nc3cc2F)n1` [Example 41] showed an IC50 greater than 1000 nM. Turning to `CCN(CC)c1nc2cc(F)c(C(=O)Nc3cccc(-c4nnnn4C(C)C)n3)cc2s1` [Example 35], the IC50 was greater than 1000 nM. Consider `CC(C)n1cnnc1-c1cccc(NC(=O)c2cc3sc(C4CCC4)nc3cc2F)n1` [Example 37], for which the IC50 lay in the range of 10 to 100 nM. Take `CC(C)n1cnnc1-c1cccc(NC(=O)c2ccc3nc(N(C)C)sc3c2)n1` [Example 23]: the IC50 was in the range of 10 to 100 nM. Consider `CNc1nc2cc(F)c(C(=O)Nc3cccc(-c4nncn4C(C)C)n3)cc2s1` [Example 49, 5-fluoro-N-(6-(4-isopropyl-4H-1,2,4-triazol-3-yl)pyridin-2-yl)-2-(methylamino)benzo[d]thiazole-6-carboxamide], for which the IC50 lay within 1 to 10 nM. Regarding `CC(C)n1cnnc1-c1cccc(NC(=O)c2cc3sc(N4CCOCC4)nc3cn2)n1` [Example 65], the IC50 fell in the range of 1 to 10 nM.

`CC(C)n1cnnc1-c1cccc(NC(=O)c2ccc3nc(N4CCC(C(C)(C)C)CC4)sc3c2)n1` [Example 25]: the IC50 lay within 100 to 1000 nM.
